Experimental data as given in the supplement of paper PMC10307832.

How the values were obtained:
Test in all cases: relative viability (nuclei count vs DMSO), 5 days (fraction); higher = more cells survive
LCLC-103H = system: LCLC-103H
Method in brief: (§1)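 Nuclei were stained with Hoechst during a one-step fixation (final 0.05% Triton X-100, 1% formaldehyde, 1 ug/ml Hoechst) carried out 5 days after dosing, then counted on 4× images. The cells, lung cancer lines in 1536-well plates, had been dosed by pin tool the day after seeding with one drug alone or a fixed anchor-drug dose plus five library-drug doses (not always all listed) in √10 steps. Relative viability is the nuclei count in treated wells divided by that in vehicle wells, and each value is the median of duplicate plates.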

LXF-289 = system: LXF-289
Method in brief: as §1

NCI-H1355 = system: NCI-H1355
Method in brief: as §1

NCI-H1651 = system: NCI-H1651
Method in brief: as §1

NCI-H1755 = system: NCI-H1755
Method in brief: as §1

NCI-H1792 = system: NCI-H1792
Method in brief: as §1

NCI-H1915 = system: NCI-H1915
Method in brief: as §1

NCI-H2170 = system: NCI-H2170
Method in brief: as §1

NCI-H2347 = system: NCI-H2347
Method in brief: as §1

NCI-H3122 = system: NCI-H3122
Method in brief: as §1

NCI-H322M = system: NCI-H322M
Method in brief: as §1

`NC(=O)Nc1cc(-c2cccc(F)c2)sc1C(=O)N[C@H]1CCCNC1` [AZD7762] + CC(=O)c1c(C)c2cnc(Nc3ccc(N4CCNCC4)cn3)nc2n(C2CCCC2)c1=O [Palbociclib] (partner 0.5 µM) was tested, and the relative viability (LCLC-103H; first compound 0.01 µM) was 0.438, the relative viability (LCLC-103H; first compound 0.03162 µM) was 0.479 and the relative viability (LCLC-103H; first compound 0.1 µM) was 0.639. For the same compound, the relative viability (LCLC-103H; first compound 0.3162 µM) was 0.449, the relative viability (LCLC-103H; first compound 1 µM) was 0.544 and the relative viability (LXF-289; first compound 0.01 µM) was 0.569. The relative viability (LXF-289; first compound 0.03162 µM) was 0.689, the relative viability (LXF-289; first compound 0.1 µM) was 0.628 and the relative viability (LXF-289; first compound 0.3162 µM) was 0.679. For the same compound, the relative viability (LXF-289; first compound 1 µM) was 0.668, the relative viability (NCI-H1355; first compound 0.01 µM) was 0.415 and the relative viability (NCI-H1355; first compound 0.03162 µM) was 0.389. For the same compound, the relative viability (NCI-H1355; first compound 0.1 µM) was 0.389, the relative viability (NCI-H1355; first compound 0.3162 µM) was 0.418 and the relative viability (NCI-H1355; first compound 1 µM) was 0.39. For the same compound, the relative viability (NCI-H1651; first compound 0.01 µM) was 0.574, the relative viability (NCI-H1651; first compound 0.03162 µM) was 0.525 and the relative viability (NCI-H1651; first compound 0.1 µM) was 0.556. The relative viability (NCI-H1651; first compound 0.3162 µM) was 0.558, the relative viability (NCI-H1651; first compound 1 µM) was 0.501 and the relative viability (NCI-H1755; first compound 0.01 µM) was 0.483. The relative viability (NCI-H1755; first compound 0.03162 µM) was 0.488, the relative viability (NCI-H1755; first compound 0.1 µM) was 0.466 and the relative viability (NCI-H1755; first compound 0.3162 µM) was 0.495. The relative viability (NCI-H1755; first compound 1 µM) was 0.442, the relative viability (NCI-H1792; first compound 0.01 µM) was 0.725 and the relative viability (NCI-H1792; first compound 0.03162 µM) was 0.705. The relative viability (NCI-H1792; first compound 0.1 µM) was 0.677, the relative viability (NCI-H1792; first compound 0.3162 µM) was 0.731 and the relative viability (NCI-H1792; first compound 1 µM) was 0.785. The relative viability (NCI-H1915; first compound 0.01 µM) was 0.552, the relative viability (NCI-H1915; first compound 0.03162 µM) was 0.608 and the relative viability (NCI-H1915; first compound 0.1 µM) was 0.606. It also gave a relative viability (NCI-H1915; first compound 0.3162 µM) of 0.617, a relative viability (NCI-H1915; first compound 1 µM) of 0.563 and a relative viability (NCI-H2170; first compound 0.01 µM) of 0.437. It also gave a relative viability (NCI-H2170; first compound 0.03162 µM) of 0.397, a relative viability (NCI-H2170; first compound 0.1 µM) of 0.425 and a relative viability (NCI-H2170; first compound 0.3162 µM) of 0.424. For the same compound, the relative viability (NCI-H2170; first compound 1 µM) was 0.415, the relative viability (NCI-H2347; first compound 0.01 µM) was 0.542 and the relative viability (NCI-H2347; first compound 0.03162 µM) was 0.469. For the same compound, the relative viability (NCI-H2347; first compound 0.1 µM) was 0.479, the relative viability (NCI-H2347; first compound 0.3162 µM) was 0.509 and the relative viability (NCI-H2347; first compound 1 µM) was 0.461. The relative viability (NCI-H3122; first compound 0.01 µM) was 0.167, the relative viability (NCI-H3122; first compound 0.03162 µM) was 0.206 and the relative viability (NCI-H3122; first compound 0.1 µM) was 0.191. For the same compound, the relative viability (NCI-H3122; first compound 0.3162 µM) was 0.199, the relative viability (NCI-H3122; first compound 1 µM) was 0.191 and the relative viability (NCI-H322M; first compound 0.01 µM) was 0.477. The relative viability (NCI-H322M; first compound 0.03162 µM) was 0.517.
